The values that follow come from US20250090473A1, “Macrophage Targeted Immunotherapeutics” (The General Hospital Corporation, priority 2017, published 2025).

Each structure is given as a SMILES string. Like-named read-outs stand apart in the source and are kept apart here.

The test system of assay [1] is murine M2-like macrophages. Put plainly: High-content morphological screening of macrophage re-education (M1 enrichment). The assay is classed as cell-based. Particulars: for M1 enrichment in response to drug treatment: variable concentrations, FIG. 5A. As for the experimental part:
Cells were maintained in the indicated medium at 37° C. and 5% CO2 and screened regularly for mycoplasma. RAW 264.7 cells were sourced from ATCC and maintained in Dulbecco's Modified Eagles Medium supplemented with 10% heat inactivated fetal calf serum (Atlanta Biologicals), 100 IU penicillin (Invitrogen), and 100 μg mL^−1 streptomycin (Invitrogen), and […] L-glutamine. The MC38 mouse colon adenocarcinoma cell lines were provided by Mark Smyth (QIMR Berghofer Medical Research Institute) with stable transfection of the H2B-Apple reporter to yield a MC38-H2B-mApple cell line employed in intravital microscopy studies. Murine bone marrow-derived macrophages (BMDMs) were isolated and derived by adaptation of published procedures known to those of skill in the art. Briefly, bone marrow was extracted from the surgically resected femur and tibia of naive C57BL/6 mice, dissociated and passed through a 40 μm strainer, and red blood cells lysed by ammonium chloride (StemCell Tech). Resultant bone marrow cells were plated in either 24-well (Corning 3527, for PCR analysis) or optical-bottom 384-well plates (Thermo Fisher 142761, for image analysis) at 1×10^6 cells mL^−1 in Iscove's Modified Dulbecco's Medium supplemented with 10% heat inactivated fetal calf serum, 100 IU penicillin, 100 μg ml^−1 streptomycin (Invitrogen) and 10 ng mL^−1 recombinant murine M-CSF (PeproTech, 315-02); media was replenished every two days. Human macrophages were derived from peripheral blood mononuclear cells isolated using Ficoll-Paque PLUS (GE Healthcare) gradient separation and derived in the presence of 50 ng mL^−1 recombinant human M-CSF (PeproTech, 300-25). Cell proliferation was assessed by PrestoBlue (Fisher) following manufacturer's protocols.
For morphological analysis, media was replenished with M-CSF-free media on day 7 followed by drug dosing (Table 1).
After 48 hours, cells were fixed with formaldehyde (30 min, 37° C.) and stained for actin (5.0 μg mL^−1 DyLight 554 Phalloidin, Cell Signaling Technology), cell membrane (5.0 μg mL^−1 Alexa Fluor 647 wheat germ agglutinin, Thermo Fisher) and nuclei (DAPI, Invitrogen) for 25 min at room temperature. Plates were washed by PBS prior to imaging on a custom Olympus-based automated high-content screening microscope. Four images were acquired per well in a 2×2 grid, imported into CellProfiler (Broad Institute) for pre-processing and segmentation (Table 2).
Computational cell classification was performed in CellProfiler Analyst (Broad Institute) by random forest assignment. Training data (examples provided, Supplementary Figure S1) consisted of approximately 50 healthy cells each representing undifferentiated (M0), M1-like, or M2-like phenotypes. The fast gentle algorithm was trained on the selected cells for […] determination of weights and thresholds for cell shape features. The resulting set of parameters was used to score all other images. The enrichment score for M1 cells was output back into the database and imported into KNIME to generate per-well and per-treatment averages.
Cell morphology was used as an integrated biomarker of cell function, including as an indicator for age and immunosuppressive capacity. The method that was used uses high-content image analysis via computational automated segmentation to extract features of single cells such as cellular radius, axis lengths, compactness, and eccentricity which are associated with the polarization state. […]

Assay [2] concerns M2-like (IL-4 treated) murine macrophages. Kind of assay: qPCR transcriptional analysis of M2-like (IL-4 treated) murine macrophages. Format: cell-based. Particulars: Mus musculus, Macrophage, M2-like macrophages cultured with R848, 24 hours, given as logIC50. As for the experimental part:
For transcriptional analysis, derived murine macrophages were treated with 10 ng mL^−1 recombinant mouse IL-4 (PeproTech 214-14) for 24 hours to induce an M2-like polarization state and subsequently dosed with fresh media supplemented by pharmacologic drugs at the prescribed concentrations. Macrophages treated only with IL-4 (10 ng mL^-1) or LPS (100 ng mL^-1) and IFNg (50 ng mL^-1) served as internal controls for M2-like and M1-like transcription profiles, respectively. […] Data are presented as the gene expression (fold change relative to hprt or β-actin, as indicated) or M1-likeness, calculated as described in Example 2, FIG. 20B. […]
A subset of drugs having a range of M1 enrichment activities were further scrutinized by qPCR analysis of representative M1-like (nos2, il12, and cd80) and M2-like (mrc1, arg1) transcripts. FIG. 20A is a set of two bar graphs depicting gene expression of M1-like and M2-like macrophages, expressed as fold change relative to hprt. […] M1-likeness is determined by summing the changes in expression for each gene resulting from treatment, normalized to the range of expression observed in the training data. […]
In general terms: Quantitative PCR measures a nucleic acid by following its amplification.

`CCCCOc1nc(N)c2c(n1)N(Cc1cccc(CN3CCCC3)c1)CC(=O)N2` [GS9620]: the “M1 enrichment in response to drug treatment” value (shortened to “M1 enrichment in response”) in assay [1] is “M1 enrichments which were as pronounced as standard M1 induction by LPS and IFNγ”.

Regarding `COc1ccc(COc2ccc(Cc3cnc(N)nc3N)cc2OC)cc1` [GW2580], the “M1 enrichment in response” value in assay [1] was “exception”.

What is called EC50 is the concentration needed to bring the measured effect to its halfway point. On to `CCOCc1nc2c(N)nc3ccccc3c2n1CC(C)(C)O` [R848, resiquimod], for which the half-maximal effective concentration (EC50) in assay [1] (Mus musculus, Macrophage, dose response, 48 hours) turned out to be 14.1 nM. Moreover, the IC50 in assay [1] (Mus musculus, Macrophage, given as logIC50) is 14.5 nM; in assay [2] (read-out: logIC50 of IL12 transcription (converted)), 398 nM; in assay [2] (read-out: logIC50 of TLR7 expression (converted)), 7.24 nM.

For `CCCN(CCC)C(=O)C1=Cc2ccc(-c3ccc(C(=O)N4CCCC4)cc3)cc2N=C(N)C1` [motolimod], the “M1 enrichment in response” value in assay [1] is “M1 enrichments which were as pronounced as standard M1 induction by LPS and IFNγ”.
